Data set [1] has as its target hHSD1 (Homo sapiens, UniProt P28845). Put plainly: Enzymatic assay, 11b-HSD1 reductase activity (conversion of cortisone into cortisol), recombinant protein. It is filed as biochemical. Conditions: 2 μM cortisone, 180 μM NADPH, pH 7.2, pIC50 scored, read-out: [C1] hHSD1 reductase Score. The procedure:
The effects of compounds on 11b-HSD1 dependent conversion of cortisone into cortisol (reductase activity) was studied in a reaction mixture containing 30 mM Tris-HCl buffer pH 7.2, 180 μM NADPH, 1 mM EDTA, 2 μM cortisone, 1 μl drug and/or solvent and 11 μg recombinant protein in a final volume of 100 μl.
All incubations were performed for 45 min at 37 C in a water bath. The reaction was stopped by adding 100 μl acetonitrile containing 20 μg corticosterone as internal standard. After centrifugation, the product formation was analysed in the supernatant by HPLC on a Hypersyl BDS-C18 column using 0.05 mM ammonium acetate/methanol (50/50) as solvent. In all of the aforementioned assays, the drugs to be tested were taken from a stock solution and tested at a final concentration ranging from −10^−5M to 3·10^−9M. From the thus obtained dose response curves, the pIC50 value was calculated and scored as follows; Score 1=pIC50 value<5, Score 2=pIC50 value in the range of 5 to 6, Score 3=pIC50 value>6. (in this table NT stands for Not Tested).

Data set [2] deals with T1, 11b-HSD1 (Mus musculus, UniProt P50172).
T1 construct: endogenous in cells; host or cells: 3T3-L1 (ATCC-CL-173), differentiated into adipocytes
In words: Cellular assay, 11b-HSD1 activity in differentiated 3T3-L1 cells. The data set is classed as cell-based. Conditions: 4 hour pre-incubation, pIC50 scored, read-out: [C2] HSD1 cellular 3T3-L1 Score. The procedure:
The effects on 11b-HSD1 activity was measured in differentiated 3T3-L1 cells and rat hepatocytes.
Mouse fibroblast 3T3-L1 cells (ATCC-CL-173) were seeded at a density of 16500 cells/ml in 12 well plates and grown for 7 days in DMEM medium (supplemented with 10% heat inactivated foetal calf serum, 2 mM glutamine and 25 mg gentamycin) at 37° C. in a humidified 5% CO2 atmosphere. Medium was refreshed twice a week. Fibroblasts were differentiated into adipocytes at 37° C. in a 5% CO2 humidified atmosphere in growth medium containing 2 μg/ml insulin, 55 μg/ml IBMX and 39.2 μg/ml dexamethasone.
Primary hepatocytes from male rats were seeded on normal Falcon 12 well plates at a density of 250000 cells/well and incubated for 16 hours at 37° C. in a 5% CO2 humidified atmosphere in DMEM-HAM's F12 medium containing 5% Nu-serum, 100 U/ml penicillin, 100 μg/ml streptomycin, 0.25 μg/ml amphotericin B, 50 μg/ml gentamycin sulfate, 5 μg/ml insulin and 392 ng/ml dexamethasone. Following a 4 hour pre-incubation with test compound, 0.5 μCi ^3H-cortisone or dehydrocorticosterone, was added to the 3T3-L1 cultures. One hour later, the medium was extracted on Extrelut^3-columns with 15 ml diethyl ether and the extract was analysed by HPLC as described above. The effects of JNJ-compounds on rat hepatocyte HSD1 activity was measured after an incubation period of 90 minutes with 0.5 μCi^3H-dehydrocorticosterone. Corticosterone formation was analysed by HPLC.
(§1) As for the enzymatic assays, the compounds to be tested were taken from a stock solution and tested at a final concentration ranging from −10^−5M to 3·10^−9M. From the thus obtained dose response curves, the pIC50 value was calculated and scored as follows; Score 1=pIC50 value<5, Score 2=pIC50 value in the range of 5 to 6, Score 3=pIC50 value>6. (in this table NT stands for Not Tested).

Data set [3] addresses T2, 11b-HSD2 (Homo sapiens, UniProt P80365).
T2 construct: endogenous in cells; host or cells: HepG2 (ATCC HB-8065)
T2 sequence (P80365 1-405): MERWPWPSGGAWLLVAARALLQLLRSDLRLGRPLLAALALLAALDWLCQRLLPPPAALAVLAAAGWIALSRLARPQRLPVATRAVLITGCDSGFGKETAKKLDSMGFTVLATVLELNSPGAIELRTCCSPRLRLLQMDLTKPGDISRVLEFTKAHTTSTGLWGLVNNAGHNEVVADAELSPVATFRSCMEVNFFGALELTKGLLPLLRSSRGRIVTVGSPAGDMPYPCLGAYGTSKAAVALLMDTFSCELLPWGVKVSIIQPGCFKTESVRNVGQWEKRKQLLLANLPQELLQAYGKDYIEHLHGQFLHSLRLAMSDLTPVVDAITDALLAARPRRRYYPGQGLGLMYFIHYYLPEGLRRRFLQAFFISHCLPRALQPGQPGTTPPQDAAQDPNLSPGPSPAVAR
Put plainly: Cellular assay, 11b-HSD2 activity in HepG2 cells. The data set is classed as cell-based. The settings on record: 4 hour pre-incubation, pIC50 scored, read-out: [C2] HSD2 cellular HepG2 Score. The procedure: The effects on 11b-HSD2 activity was studied in HepG2 and LCC-PK1-cells HepG2-cells (ATCC HB-8065) were seeded in 12 well plates at a density of 100,000 cells/ml and grown at 37° C. in a humidified 5% CO2 atmosphere in MEM-Rega-3 medium supplemented with 10% heat inactivated foetal calf serum, 2 mM L-glutamine and sodium bicarbonate). Medium was refreshed twice a week.
Following a 4 hour pre-incubation with test compound, 0.5 μCi ^3H-cortisol or corticosterone, was added to the cultures. One hour later, the medium was extracted on Extrelut^3-columns with 15 ml diethyl ether and the extract was analysed by HPLC as described above.
as §1

T1 sequence (P50172 whole entry): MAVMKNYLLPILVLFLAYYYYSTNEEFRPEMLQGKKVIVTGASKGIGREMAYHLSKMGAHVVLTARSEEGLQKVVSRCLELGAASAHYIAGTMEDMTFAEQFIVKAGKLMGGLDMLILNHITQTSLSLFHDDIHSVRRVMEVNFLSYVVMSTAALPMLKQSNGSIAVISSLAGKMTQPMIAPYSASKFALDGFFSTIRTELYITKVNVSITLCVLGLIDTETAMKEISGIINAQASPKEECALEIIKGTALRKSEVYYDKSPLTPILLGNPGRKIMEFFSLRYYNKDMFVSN
Chain of hHSD1 (P28845 whole entry): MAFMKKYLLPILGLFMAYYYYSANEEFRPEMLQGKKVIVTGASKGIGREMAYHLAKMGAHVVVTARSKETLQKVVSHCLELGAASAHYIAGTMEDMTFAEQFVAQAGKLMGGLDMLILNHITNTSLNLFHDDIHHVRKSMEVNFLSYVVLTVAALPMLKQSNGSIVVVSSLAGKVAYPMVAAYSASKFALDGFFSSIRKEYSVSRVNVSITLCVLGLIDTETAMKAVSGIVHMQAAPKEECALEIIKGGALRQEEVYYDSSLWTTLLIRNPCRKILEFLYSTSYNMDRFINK

In turn, `O=C1N2CCc3ccccc3C2CN1[C@H]1[C@@H]2CC3C[C@H]1C[C@](O)(C3)C2` (stereo partly shown) [Compound 24] yielded a melting point of 235 to 237 °C. In addition, the IC50 in data set [1] is < 1 µM. The IC50 in data set [2] is < 1 µM. Besides, the IC50 in data set [3] was < 1 µM.
The compound `O=C1N2CCc3ccccc3C2CN1[C@@H]1[C@@H]2CC3C[C@H]1C[C@](O)(C3)C2` (stereo partly shown) [Compound 25] returned a melting point of 210 to 212 °C. Also, the IC50 in data set [1] lay in the range of 1 to 10 µM. Moreover, the IC50 in data set [2] was < 1 µM.

A word on the melting point: it is the temperature of the solid-liquid transition.

The values above are taken from patent publication US9150512B2, “Tricyclic lactam derivatives as 11-beta hydroxysteroid dehydrogenase inhibitors” (Janssen Pharmaceutica NV, priority 2004, dated 2015).
